Some test systems named below: ACHN renal; HCT-116 colon; HT29 colon; KM12 colon; M14 melanoma; MALME-3M melanoma; RPMI-8226 leukemia; SN12C renal; T-47D breast; RXF 393 renal.
Common to all, as to assay: inhibition of tumour cell growth, NCI panel, 48 h

The record followed here is PubChem BioAssay (NCI).

Where “and” joins values, the source holds several entries; their conditions need not be identical. Identical values can stand only once.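 Results reflect a 48-hour exposure of cells in 96-well plates to compound at five concentrations. GI50 is the concentration that inhibits growth by half. Definition used: TGI = concentration required for complete inhibition of growth.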 Some results are limits rather than exact numbers.

`COC(C)C(O)(C(=O)OCC1=CCN2CCC(O)C12)C(C)(C)O` (stereo not given): the TGI in the test on ACHN renal, in the test with HCT-116 colon, with HT29 colon, in the test on KM12 colon, with M14 melanoma and in the test with MALME-3M melanoma was > 100 µM each time. In addition, the TGI with RPMI-8226 leukemia, in the test on SN12C renal and with T-47D breast was > 100 µM each time.

In the case of `CN(N)c1nc(N)c(C#N)c(C#N)c1C#N`, the TGI in the test on ACHN renal, with HCT-116 colon, with HT29 colon, with KM12 colon, in the test on M14 melanoma and in the test with MALME-3M melanoma was > 10 µM in each case. The TGI in the test with RPMI-8226 leukemia, with SN12C renal and in the test with T-47D breast was > 10 µM in each case.

On to `CC[C@H](C)[C@H](NC(=O)c1cccn1C)C(=O)N(C)[C@H](C[C@@H](OC(C)=O)c1nc(C(=O)N[C@@H](Cc2ccccc2)C[C@H](C)C(=O)OC)cs1)C(C)C`, for which the GI50 is 0.502 µM in the test on ACHN renal; 0.127 µM with HCT-116 colon; 0.205 µM with HT29 colon; 0.106 µM with KM12 colon; 0.131 µM in the test on M14 melanoma; 11.1 µM in the test with MALME-3M melanoma. Besides, the GI50 is 0.129 µM in the test with RPMI-8226 leukemia, 0.351 µM with SN12C renal and 0.0946 µM with T-47D breast. Besides, the TGI in the test with ACHN renal is > 33.3 µM; in the test with HCT-116 colon, > 11.3 µM; in the test on HT29 colon, > 29.5 µM; in the test on KM12 colon, > 33.3 µM; in the test with M14 melanoma, 0.832 µM; in the test on MALME-3M melanoma, > 33.3 µM. Besides, the TGI with RPMI-8226 leukemia is > 18.8 µM; in the test on SN12C renal it was > 33.3 µM; in the test with T-47D breast, > 33.3 µM.

Regarding `CCOC(=O)C1=C(C)NC(c2ccco2)=C(C#N)C1c1cccc([N+](=O)[O-])c1` (stereo not given), the TGI came out at 45.7 µM in the test on ACHN renal; 4.17 µM in the test on HCT-116 colon; 0.562 µM with HT29 colon; 16 µM with KM12 colon; 3.28 µM in the test on M14 melanoma; 23.6 µM with MALME-3M melanoma. This compound also showed a TGI in the test on SN12C renal of 19.7 µM. For the same compound, the GI50 with HT29 colon was 0.01 µM; in the test with KM12 colon, 0.035 µM; with M14 melanoma it was 0.0132 µM; in the test on RPMI-8226 leukemia, 0.0658 µM; with SN12C renal it was 0.0465 µM; in the test on T-47D breast, 20.9 µM.

For the compound `O=C1N=C(Nc2nc(-c3csc(NC4=NC(=O)/C(=C\c5ccccc5)S4)n3)cs2)S/C1=C/c1ccccc1`, the GI50 in the test on ACHN renal was 12.2 µM; in the test on HCT-116 colon, 3.5 µM; with HT29 colon it was 25.7 µM; in the test on KM12 colon it was 11.2 µM; in the test on M14 melanoma, 4.63 µM; with RPMI-8226 leukemia, 0.629 µM. Besides, the values for the GI50 in the test on RXF 393 renal, in the test on SN12C renal and in the test with T-47D breast were 18.5 µM, 5.64 µM and > 50 µM, respectively. In addition, the TGI was 46.3 µM with ACHN renal; 29 µM with HCT-116 colon; > 50 µM in the test with HT29 colon; > 50 µM in the test on KM12 colon; 32.3 µM with M14 melanoma; 3.35 µM with RPMI-8226 leukemia. Besides, the TGI is > 50 µM in the test on RXF 393 renal, 20.6 µM with SN12C renal and > 50 µM with T-47D breast.

On to `C=C1C(OC(C)=O)CC(OC(C)=O)C2(C)C(OC(C)=O)C(OC(C)=O)C3=C(C)C(OC(=O)/C=C/c4ccccc4)CC(C(OC(C)=O)C12)C3(C)C` (stereo not given), for which the TGI with ACHN renal, in the test with HCT-116 colon, in the test with HT29 colon, with KM12 colon, in the test with M14 melanoma and in the test with MALME-3M melanoma was > 100 µM throughout. The TGI in the test on RPMI-8226 leukemia, with RXF 393 renal and in the test with SN12C renal was > 100 µM throughout.

Regarding `COc1cc(/C=C2\CCCC3=C2N=C2SC(C)=NN2C3c2cc(OC)c(OC)c(OC)c2)cc(OC)c1OC` (stereo not given), the GI50 was 0.322 µM in the test with KM12 colon, > 100 µM with MALME-3M melanoma and > 100 µM in the test with T-47D breast. For the same compound, the TGI in the test with KM12 colon, in the test on MALME-3M melanoma and in the test with T-47D breast was > 100 µM each time.

On to `c1ccc(OC2=NC3=S(S2)SC(Oc2ccccc2)=N3)cc1`, for which the TGI was 42.5 µM in the test on ACHN renal; 33.4 µM with HCT-116 colon; 40.2 µM with HT29 colon; 34.4 µM with KM12 colon; 34.8 µM in the test with M14 melanoma; 41.7 µM in the test on MALME-3M melanoma. Also, the figures for the TGI in the test on RPMI-8226 leukemia, in the test on RXF 393 renal and with SN12C renal were 24.8 µM, 24.2 µM and 40.8 µM, respectively.

Consider `C[C@H]1C=C2C(=O)O[C@H]3CC[C@@H](C1)[C@@]23O`, for which the TGI came out at 17.2 µM with ACHN renal; 9.24 µM in the test on HCT-116 colon; 16.9 µM with HT29 colon; 12.7 µM in the test with KM12 colon; 14.7 µM with M14 melanoma; 20 µM in the test with MALME-3M melanoma. In addition, the TGI in the test on RPMI-8226 leukemia is > 100 µM; in the test with RXF 393 renal, 9.02 µM; in the test on SN12C renal, 6.76 µM.

As for `COc1cc(C(=O)c2cocc2C(=O)c2ccc3c(c2)OCO3)cc(OC)c1OC`, the TGI was > 48.4 µM in the test with ACHN renal; 24.4 µM in the test with HCT-116 colon; 5.98 µM in the test with HT29 colon; 59.1 µM in the test with KM12 colon; 33.5 µM with M14 melanoma; 29.1 µM in the test with MALME-3M melanoma. Further, the TGI with RPMI-8226 leukemia is 32.3 µM; with RXF 393 renal, 4.43 µM; in the test on SN12C renal, 56.1 µM.

For the compound `O=C1NC2C(O)CCCCC2C12CCCCC2` (stereo not given), the TGI with ACHN renal, in the test on HCT-116 colon, in the test on HT29 colon, with KM12 colon, in the test on M14 melanoma and with MALME-3M melanoma was > 100 µM each time. The TGI with RPMI-8226 leukemia, in the test on RXF 393 renal and in the test with SN12C renal was > 100 µM throughout.

Regarding `CC(=O)Oc1ccc2c(c1)C(=O)c1nc(C)c(C)nc1C2=O`, the TGI with ACHN renal is > 100 µM; in the test with HCT-116 colon it was > 100 µM; with HT29 colon, > 91.7 µM; in the test with KM12 colon, > 100 µM; in the test on M14 melanoma it was > 100 µM; with MALME-3M melanoma it was 38 µM. Moreover, the TGI with RPMI-8226 leukemia was > 100 µM; in the test with RXF 393 renal, 96.4 µM; with SN12C renal it was > 100 µM.

Regarding `CC[PH+](CC)CC.[Cl][Au]`, the GI50 with ACHN renal is 1.61 µM; with HCT-116 colon, 1.84 µM; in the test with HT29 colon, 3.84 µM; in the test on KM12 colon, 11.6 µM; in the test on M14 melanoma it was 1.17 µM; with MALME-3M melanoma it was 1.27 µM. Also, the GI50 in the test on RPMI-8226 leukemia is 1.03 µM; in the test with RXF 393 renal, 0.447 µM; in the test with SN12C renal it was 1.82 µM. Besides, the TGI in the test on ACHN renal is 3.32 µM; in the test on HCT-116 colon, 3.59 µM; in the test with HT29 colon it was 8.96 µM; in the test with KM12 colon it was 26 µM; with M14 melanoma, 2.53 µM; with MALME-3M melanoma, 2.56 µM. In addition, the TGI in the test on RPMI-8226 leukemia amounted to 3.84 µM; in the test on RXF 393 renal, 1.66 µM; with SN12C renal, 3.55 µM.

`COC(=O)[C@H](Cc1cn(C)cn1)NC(=O)[C@H](Cc1ccccc1)NC(=O)Nc1cc(C(F)(F)F)cc(C(F)(F)F)c1`: the GI50 with ACHN renal was 17.2 µM; in the test on HCT-116 colon, 3.1 µM and 3.54 µM; in the test on HT29 colon it was 4.97 µM and 14.9 µM; in the test on KM12 colon it was 13.5 µM; in the test with M14 melanoma it was 13.5 µM; in the test on MALME-3M melanoma it was 18.2 µM. Besides, the GI50 was 7.49 µM and 11 µM in the test with RPMI-8226 leukemia; 11.7 µM in the test on SN12C renal; 3.54 µM and 8.29 µM with T-47D breast. The TGI amounted to 33.4 µM with ACHN renal; 10.9 µM in the test on HCT-116 colon; 29.8 µM in the test on HT29 colon; 28.2 µM with KM12 colon; 28.5 µM in the test on M14 melanoma; 34.2 µM in the test with MALME-3M melanoma. The TGI in the test with RPMI-8226 leukemia came to 31.5 µM; with SN12C renal it was 24.6 µM; in the test on T-47D breast, 27 µM.

Consider `O=C(/C=C/C12c3ccccc3C(c3ccccc31)C1C(=O)NC(=O)C12)c1ccccc1` (stereo not given), for which the GI50 in the test with ACHN renal is 1.75 µM; in the test with HCT-116 colon it was 1.35 µM; in the test with HT29 colon, 3.25 µM; in the test with KM12 colon, 2.72 µM; in the test with M14 melanoma it was 1.78 µM; in the test with MALME-3M melanoma, 1.64 µM. The GI50 with RPMI-8226 leukemia was 1.51 µM; in the test with RXF 393 renal it was 1.5 µM; with SN12C renal, 2.29 µM. The TGI with ACHN renal was determined as 3.59 µM; in the test with HCT-116 colon, 2.89 µM; with HT29 colon, 11.9 µM; in the test on KM12 colon it was 11 µM; with M14 melanoma, 3.68 µM; in the test with MALME-3M melanoma, 3.15 µM. Moreover, the TGI in the test with RPMI-8226 leukemia came out at 4.1 µM; in the test with RXF 393 renal it was 2.94 µM; in the test with SN12C renal, 6.91 µM.

For the compound `Nc1c2ccccc2nc2c(C(=O)Nc3ccc(S(N)(=O)=O)cc3)cccc12`, the TGI in the test with ACHN renal, in the test on HCT-116 colon, in the test with HT29 colon, with KM12 colon, in the test on M14 melanoma and in the test on MALME-3M melanoma was > 100 µM in each case. For the same compound, the TGI in the test on RPMI-8226 leukemia, with RXF 393 renal and with SN12C renal was > 100 µM each time.
